Experimental data: patent US9115148B2, “Spirocyclic derivatives as histone deacetylase inhibitors” (DAC S.R.L., priority 2008, dated 2015)

What was measured:
HCT-116 cells = assay: Cell growth, CellTiter-Glo Luminescent Cell Viability Assay, HCT-116; format: cell-based; details: Homo sapiens, HCT116 cells, 72 h incubation, read-out: IC50 antiproliferative assay HCT116
Excerpt: (§1) CellTiter-Glo® Luminescent Cell Viability Assay (Promega) is a homogeneous method of determining the number of viable cells in culture based on quantitation of the present ATP, which indicates the presence of metabolically active cells. The homogeneous assay procedure involves addition of a single reagent (CellTiter-Glo® Reagent) directly to the cells, which leads to cell lysis and generation of a luminescent signal proportional to the amount of the ATP and the number of cells present in culture. The assay relies on the properties of a proprietary thermostable luciferase (Ultra-Glo® recombinant luciferase), which generates a luminescent signal.
(§2) K562, A549 and HCT-116 cells, in exponential growth, were incubated for 72 h with different concentrations of the inhibitors. After 72 h, a volume of CellTiter-Glo® Reagent equal to the volume of cell culture medium was added. The content was mixed for 2 min to induce cell lysis. The luminescence was recorded after further 10 min at RT in order to obtain a stabilized luminescent signal.
(§3) The IC50 was calculated using GraphPad Software.
(§4) IC50 results were allocated to one of 3 ranges as follows: Range A: IC50≦1.0 μM; Range B: from 1.0 to 3.0 μM; Range C: IC50≧3.0 μM.

[1] = tested on: HDAC (nuclear fraction of Hela cells); assay: Assay of enzyme inhibition of HDAC (BIOMOL Kit); format: biochemical; details: substrate 200 μM, 15 min at RT
Method: 2.2 Assay of Enzyme Inhibition of HDAC
The in-vitro activity of HDAC inhibitors was assayed using a BIOMOL Kit, according to the instructions from the manufacturer (Biomolecular Research Laborator). 15 μl of 30× diluted nuclear fraction of Hela cells, was diluted to 50 μl with the assay buffer containing the HDAC inhibitor and the substrate (lysine with acetylated amino group on the side chain) at a concentration of 200 μM. The samples were incubated for 15 min at RT and then exposed to a developer (10 min at RT). In this last step a fluorophore was produced, whose fluorescence was measured using an excitation wavelength of 355 nm and an emission at 460 nm. The IC50 was calculated using GraphPad Software.

K562 cells = assay: Cell growth, CellTiter-Glo Luminescent Cell Viability Assay, K562; format: cell-based; details: Homo sapiens, 72 h incubation, read-out: IC50 antiproliferative assay K562
Excerpt: as §1, §2, §3, §4

A549 cells = assay: Cell growth, CellTiter-Glo Luminescent Cell Viability Assay, A549; format: cell-based; details: Homo sapiens, 72 h incubation, read-out: IC50 antiproliferative assay A549
Excerpt: as §1, §2, §3, §4

| SMILES | IC50 (HCT-116 cells) | IC50 [1] | IC50 (K562 cells) | IC50 (A549 cells) |
| --- | --- | --- | --- | --- |
| CCOC(=O)N1CCC2(CC1)CC(=O)c1cc(/C=C/C(=O)NO)ccc1O2 [Example 6, (E)-3-{1′-Ethyloxycarbonyl-4-oxo-spiro[chromane-2,4′-piperidine]-6-yl}-N-hydroxy-acrylamide] | 1 to 3 µM | 0.1 to 1 µM | 1 to 3 µM | ≥ 3 µM |
| O=C(/C=C/c1ccc2c(c1)C(=O)CC1(CCN(c3ccccc3)CC1)O2)NO [Example 7, (E)-3-{1′-Phenyl-4-oxo-spiro[chromane-2,4′-piperidine]-6-yl}-N-hydroxy-acrylamide] | 1 to 3 µM | 0.1 to 1 µM | ≤ 1 µM | 1 to 3 µM |
| O=C(/C=C/c1ccc2c(c1)OC1(CCNCC1)CC2=O)NO [Example 8, (E)-3-{4-oxo-spiro[chromane-2,4′-piperidine]-7-yl}-N-hydroxy-acrylamide] | ≥ 3 µM | > 1 µM | ≥ 3 µM | ≥ 3 µM |
| O=C(/C=C/c1ccc2c(c1)OC1(CCN(Cc3ccccc3)CC1)CC2=O)NO [Example 9, (E)-3-{1′-Benzyl-4-oxo-spiro[chromane-2,4′-piperidine]-7-yl}-N-hydroxy-acrylamide] | ≥ 3 µM | > 1 µM | ≥ 3 µM | ≥ 3 µM |
| CC(=O)N1CCC2(CC1)CC(=O)c1ccc(/C=C/C(=O)NO)cc1O2 [Example 10, (E)-3-{1′-Acetyl-4-oxo-spiro[chromane-2,4′-piperidine]-7-yl}-N-hydroxy-acrylamide] | ≥ 3 µM | > 1 µM | ≥ 3 µM | ≥ 3 µM |
| O=C(/C=C/c1ccc2c(c1)OC1(CCN(C(=O)c3ccccc3)CC1)CC2=O)NO [Example 11, (E)-3-{1′-Benzoyl-4-oxo-spiro[chromane-2,4′-piperidine]-7-yl}-N-hydroxy-acrylamide] | ≥ 3 µM | 0.1 to 1 µM | ≥ 3 µM | ≥ 3 µM |
| CCOC(=O)N1CCC2(CC1)CC(=O)c1ccc(/C=C/C(=O)NO)cc1O2 [Example 12, (E)-3-{1′-Ethyloxycarbonyl-4-oxo-spiro[chromane-2,4′-piperidine]-7-yl}-N-hydroxy-acrylamide] | ≥ 3 µM | 0.1 to 1 µM | 1 to 3 µM | 1 to 3 µM |
| O=C(/C=C/c1ccc2c(c1)CCC1(CCN(Cc3ccccc3)CC1)O2)NO [Example 13, (E)-3-{1′-Benzyl-spiro[chromane-2,4′-piperidine]-6-yl}-N-hydroxy-acrylamide] | ≥ 3 µM | > 1 µM | ≥ 3 µM | ≥ 3 µM |
| O=C(/C=C/c1ccc2c(c1)C(O)CC1(CCN(Cc3ccccc3)CC1)O2)NO (stereo not drawn) [Example 14, (E)-3-{1′-Benzyl-4-hydroxy-spiro[chromane-2,4′-piperidine]-6-yl}-N-hydroxy-acrylamide] | 1 to 3 µM | > 1 µM | 1 to 3 µM | ≥ 3 µM |
| O=C(/C=C/c1ccc2c(c1)C=CC1(CCN(Cc3ccccc3)CC1)O2)NO [Example 15, (E)-3-{1′-Benzyl-spiro[chromene-2,4′-piperidine]-6-yl}-N-hydroxy-acrylamide] | ≥ 3 µM | > 1 µM | ≥ 3 µM | ≥ 3 µM |
| CC(=O)NC1CC2(CCN(Cc3ccccc3)CC2)Oc2ccc(/C=C/C(=O)NO)cc21 (stereo not drawn) [Example 16, (E)-3-{1′-Benzyl-4-acetylamino-spiro[chromane-2,4′-piperidine]-6-yl}-N-hydroxy-acrylamide] | ≥ 3 µM | > 1 µM | ≥ 3 µM | ≥ 3 µM |
| O=C(/C=C/c1ccc2c(c1)/C(=N/O)CC1(CCN(Cc3ccccc3)CC1)O2)NO [Example 19, (E)-3-{1′-Benzyl-4-hydroxyimino-spiro[chromane-2,4′-piperidine]-6-yl}-N-hydroxy-acrylamide] | ≤ 1 µM | < 0.1 µM | 1 to 3 µM | 1 to 3 µM |
